The results in this text go back to the supplement of paper PMC4862054.

Common to all, as to details: 72 h
Assay [1] concerns HDQ-P1. The procedure:
(§1)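 Drug sensitivity and resistance testing (DSRT) of breast cancer cell lines in 384-well plates, 5 concentrations in 10-fold dilutions over a compound-specific 10,000-fold range. After 72 h, cytotoxicity was read by CellTox Green fluorescence and viability by CellTiter-Glo luminescence (multiplexed), normalised to DMSO and benzethonium chloride controls. EC50 is the inflection point of the fitted dose-response curve (bottom asymptote free, so it can be relative for partial curves) and is censored at the highest tested concentration. Rows with DSS 0 (no meaningful response) were excluded.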

Assay [2] concerns CAL-148. A digest of the protocol: (§2)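 After 72 h on 384-well plates pre-loaded with compound in 5 µl medium, breast cancer cell lines seeded in 20 µl were assayed for viability with 2.5 µl CellTiter-Blue at 37 °C for 2 h, read at 560/590 nm. Each plate was quality-checked by Z'-factor and normalised to vehicle and a positive kill control. EC50 comes from the fitted percent-inhibition dose-response curve, censored at the top concentration, and rows scoring zero for drug sensitivity were left out.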

The test system of assay [3] is CAL-85-1. A digest of the protocol: as §2
Assay [4] concerns CAL-51. A digest of the protocol: as §2
Assay [5] concerns HDQ-P1. A digest of the protocol: as §2
This is another data set of the same source.

Assay [6] deals with DU-4475. A digest of the protocol: as §2
Assay [7] has as its system MDA-MB-453. In a few lines: as §2
In assay [8] the test system is BT-474. In a few lines: as §2
Assay [9] has as its system SK-BR-3. In a few lines: as §2
Assay [10] deals with MDA-MB-436. A digest of the protocol: as §2
For assay [11], the system named is BT-549. A digest of the protocol: as §2
In assay [12] the test system is HCC1143. A digest of the protocol: as §2
The test system of assay [13] is Hs578T. In a few lines:
as §2

Assay [14] deals with MDA-MB-468. In a few lines:
as §2

Another assay relates to MFM-223. In a few lines:
as §2

Assay [15] concerns SK-BR-3. A digest of the protocol:
(§3)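 Per-plate normalisation used 0.1 % DMSO and a positive kill control. Breast cancer cell lines (20 µl suspension) were seeded into 384-well plates containing compound at 5 concentrations in 10-fold steps across a compound-specific 10,000-fold range, incubated for 72 h, and read first for CellTox Green fluorescence (485/520 nm), then for CellTiter-Glo luminescence. EC50 was fitted from the dose-response curves and censored at the top concentration.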
The source holds these as a separate data set.

The subject of assay [16] is CAL-85-1. A digest of the protocol:
as §3
This is another data set of the same source.

For another assay, the system named is MCF-10A. A digest of the protocol: as §3
The subject of assay [17] is HDQ-P1. A digest of the protocol:
as §3
This is another data set of the same source.

The subject of assay [18] is MDA-MB-453. In a few lines: as §3
The source holds these as a separate data set.

Assay [19] concerns BT-474. The procedure:
as §1
The source holds these as a separate data set.

Assay [20] relates to MDA-MB-436. How it is done:
as §1
This is another data set of the same source.

The test system of assay [21] is CAL-85-1. The procedure: as §1
The source holds these as a separate data set.

Assay [22] has as its system CAL-148. In a few lines:
as §3
This is another data set of the same source.

For assay [23], the system named is MDA-MB-436. In a few lines: as §3
This is another data set of the same source.

Assay [24] concerns CAL-120. A digest of the protocol:
as §3

Assay [25] deals with CAL-51. The procedure:
as §1
This is another data set of the same source.

Assay [26] deals with HCC1599. A digest of the protocol:
as §2

A further assay concerns MDA-MB-231. In a few lines: as §3
Assay [27] deals with BT-549. A digest of the protocol: as §3
The source holds these as a separate data set.

Assay [28] relates to HCC1599. In a few lines:
as §3
This is another data set of the same source.

For assay [29], the system named is HCC1143. In a few lines:
as §3
This is another data set of the same source.

The test system of assay [30] is Hs578T. A digest of the protocol:
as §3
The source holds these as a separate data set.

Assay [31] has as its system DU-4475. In a few lines: as §3
The source holds these as a separate data set.

The subject of assay [32] is CAL-148. The procedure: as §1
The source holds these as a separate data set.

The subject of assay [33] is CAL-120. How it is done:
as §1
The source holds these as a separate data set.

Assay [34] has as its system Hs578T. How it is done:
as §1
This is another data set of the same source.

Assay [35] relates to MDA-MB-468. The procedure: as §1
The source holds these as a separate data set.

For assay [36], the system named is DU-4475. The procedure:
as §1
The source holds these as a separate data set.

Assay [37] has as its system BT-549. How it is done: as §1
This is another data set of the same source.

Take `C[C@@H](Oc1cc(-c2cnn(C3CCNCC3)c2)cnc1N)c1c(Cl)ccc(F)c1Cl` [Crizotinib]: the “EC50, CellTox Green” value in the assay on HDQ-P1 [1] is above 1000 nM. In addition, the “EC50, CellTiter-Blue viability” value was determined as 3570 nM in the assay with CAL-148 [2]; 6530 nM with CAL-85-1 [3]; 3140 nM in the assay on CAL-51 [4]; 6970 nM in the assay with HDQ-P1 [5]; 4940 nM with DU-4475 [6]; 4070 nM with MDA-MB-453 [7]. Moreover, the “EC50, CellTiter-Blue viability” value with BT-474 [8] was 3540 nM; in the assay with SK-BR-3 [9], 4160 nM; in the assay on MDA-MB-436 [10], 275 nM; in the assay on BT-549 [11], 7180 nM; in the assay with HCC1143 [12] it was 8170 nM; in the assay on Hs578T [13], 7690 nM. For the same molecule, the “EC50, CellTiter-Blue viability” value with MDA-MB-468 [14] worked out at 3640 nM; with MFM-223 it was 3720 nM.
Turning to `COc1cc2ncnc(Nc3ccc(F)c(Cl)c3)c2cc1NC(=O)/C=C/CN1CCCCC1` [Dacomitinib], the “EC50, CellTiter-Glo” value in the assay on SK-BR-3 [15] was 26.3 nM; in the assay on CAL-85-1 [16], 56.8 nM; in the assay on MCF-10A, 6.27 nM; in the assay with HDQ-P1 [17] it was 3.24 nM; in the assay with MDA-MB-453 [18] it was 74.8 nM. The “EC50, CellTox Green” value with BT-474 [19] amounted to 82.4 nM; with MDA-MB-436 [20], 319 nM; with CAL-85-1 [21] it was 564 nM.
Take `C#Cc1cccc(Nc2ncnc3cc(OCCOC)c(OCCOC)cc23)c1` [Erlotinib]: the “EC50, CellTiter-Glo” value with SK-BR-3 [15] is 3440 nM; in the assay with CAL-148 [22], 881 nM; in the assay with MDA-MB-436 [23], 7110 nM; in the assay on CAL-85-1 [16] it was 761 nM; in the assay on MCF-10A it was 96 nM; with CAL-120 [24], 9090 nM. The “EC50, CellTiter-Glo” value with HDQ-P1 [17] was found to be 28.7 nM. For the same molecule, the “EC50, CellTox Green” value in the assay on CAL-85-1 [21] is 1590 nM; with CAL-51 [25], 3160 nM. In addition, the “EC50, CellTiter-Blue viability” value came out at 3630 nM in the assay with CAL-148 [2]; 754 nM with CAL-85-1 [3]; 90.2 nM in the assay on HDQ-P1 [5]; 8340 nM in the assay with MDA-MB-453 [7]; 1750 nM in the assay with BT-474 [8]; 4990 nM in the assay on SK-BR-3 [9]. Besides, the results for the “EC50, CellTiter-Blue viability” value in the assay on MDA-MB-436 [10], in the assay with HCC1599 [26] and in the assay with MDA-MB-468 [14] were 840 nM, 103 nM and 1510 nM, respectively.
On to `COc1cc([C@@H]2c3cc4c(cc3[C@@H](O[C@@H]3O[C@@H]5CO[C@@H](C)O[C@H]5[C@H](O)[C@H]3O)[C@H]3COC(=O)[C@H]23)OCO4)cc(OC)c1O` [Etoposide], for which the “EC50, CellTiter-Glo” value with SK-BR-3 [15] amounted to 1210 nM; in the assay on CAL-148 [22] it was 980 nM; in the assay with MDA-MB-436 [23], 977 nM; in the assay on MDA-MB-231, 1850 nM; in the assay with CAL-85-1 [16], 9970 nM; in the assay with BT-549 [27], 3990 nM. For the same molecule, the “EC50, CellTiter-Glo” value with HCC1599 [28] is 1150 nM; with HCC1143 [29] it was 1650 nM; in the assay with CAL-120 [24], 1550 nM; with Hs578T [30] it was 1490 nM; in the assay with DU-4475 [31], 1260 nM. Also, the “EC50, CellTox Green” value with CAL-148 [32] came out at 3020 nM; in the assay with CAL-85-1 [21] it was 7710 nM; in the assay with CAL-51 [25] it was 624 nM; in the assay with CAL-120 [33], 3670 nM; in the assay with Hs578T [34] it was 55.8 nM; in the assay on MDA-MB-468 [35], 2330 nM. The “EC50, CellTox Green” value with DU-4475 [36] was 3830 nM. Further, the “EC50, CellTiter-Blue viability” value in the assay with CAL-148 [2] came to 1130 nM; in the assay with CAL-85-1 [3], 2550 nM; with CAL-51 [4], 367 nM; in the assay on HDQ-P1 [5], 775 nM; in the assay on DU-4475 [6], 180 nM; in the assay on SK-BR-3 [9], 785 nM. Further, the “EC50, CellTiter-Blue viability” value in the assay with MDA-MB-436 [10] was 2610 nM; in the assay on BT-549 [11], 224 nM; with HCC1599 [26], 1700 nM; in the assay on HCC1143 [12] it was 1600 nM; in the assay on Hs578T [13] it was 3040 nM; with MDA-MB-468 [14], 1810 nM.
In the case of `O=P1(NCCCl)OCCCN1CCCl` (stereo not given) [Ifosfamide], the “EC50, CellTox Green” value in the assay with MDA-MB-436 [20] and in the assay on BT-549 [37] was above 10000 nM in each case.
Consider `CC(C)Cn1cnc2c(N)nc3ccccc3c21` [Imiquimod], for which the “EC50, CellTox Green” value in the assay on BT-549 [37] was above 2500 nM. Moreover, the “EC50, CellTiter-Blue viability” value with MDA-MB-453 [7] worked out at 6690 nM.
